Measurements reported in patent US20140309400A1, “Use of Cell-Permeable Peptide Inhibitors of the JNK Signal Transduction Pathway for the Treatment of Dry Eye Syndrome” (Xigen Inflammation Ltd., priority 2011, published 2014).
Non-standard residues stand in square brackets, D forms with d.

How the values were obtained:
Format in all cases: in vivo, female C57BL/6 mice
[1] = system: mouse model of scopolamine-induced dry eye; test: Tear break-up time (TBUT) test in scopolamine-induced dry eye mice; settings: for Mean Calculated TBUT AUC: TID, OU, 5 μL/eye, Days 1 to 21
Method: The study consisted of a total of 5 groups of female C57BL/6 mice, comprising 4 groups of 12 mice each and an additional group of 4 mice. Bilateral short-term dry eye was induced by a combination of scopolamine hydrobromide (Sigma-Aldrich Corp., St. Louis, Mo.) injection (subcutaneous (SC), four times daily, 0.5 mg/dose, Days 0-21) and by exposing mice to the drying environment of constant air draft. Starting on Day 1, mice of Groups 1-4 were treated three times daily (TID) for 21 days with bilateral topical ocular (oculus uterque; OU) administration (5 μL/eye/dose) of vehicle (0.9% sterile saline; negative control article); or the peptide of SEQ ID NO: 11 (0.06%, 0.25% and 0.6%). Mice of Group 5 were maintained as un-induced, (no dry eye) untreated controls. During the in-life (treatment) period, clinical observations were recorded once daily; slit-lamp examination (SLE) with corneal fluorescein staining, tear break-up time test (TBUT), and phenol red thread test (PRTT) were performed three times per week. Necropsies were performed on Day 22; eyes, eye lids, conjunctivae, and lacrimal glands were collected from both eyes of each animal. Tissues from the right eyes (oculus dexter, OD) were fixed and then evaluated microscopically. Tissues from the left eyes (oculus sinister; OS) were flash-frozen in liquid nitrogen and stored frozen at −80° C. for possible subsequent analyses. The TBUT test was conducted three times weekly by measuring the time elapsed in seconds between a complete blink after application of fluorescein to the cornea and the appearance of the first random dry spot in the tear film. […] At least ninety seconds later, corneal epithelial damage was graded using a slit-lamp with a cobalt blue filter after another drop of 0.1% fluorescein was reapplied to the cornea; the cornea then was scored per the Draize ocular scale.

[2] = system: mouse model of scopolamine-induced dry eye; test: Phenol red thread tear test (PRTT) in scopolamine-induced dry eye mice; settings: for Mean PRTT AUC: TID, OU, 5 μL/eye, AUC Day 7-21
Method: The study consisted of a total of 5 groups of female C57BL/6 mice, comprising 4 groups of 12 mice each and an additional group of 4 mice. Bilateral short-term dry eye was induced by a combination of scopolamine hydrobromide (Sigma-Aldrich Corp., St. Louis, Mo.) injection (subcutaneous (SC), four times daily, 0.5 mg/dose, Days 0-21) and by exposing mice to the drying environment of constant air draft. Starting on Day 1, mice of Groups 1-4 were treated three times daily (TID) for 21 days with bilateral topical ocular (oculus uterque; OU) administration (5 μL/eye/dose) of vehicle (0.9% sterile saline; negative control article); or the peptide of SEQ ID NO: 11 (0.06%, 0.25% and 0.6%). Mice of Group 5 were maintained as un-induced, (no dry eye) untreated controls. During the in-life (treatment) period, clinical observations were recorded once daily; slit-lamp examination (SLE) with corneal fluorescein staining, tear break-up time test (TBUT), and phenol red thread test (PRTT) were performed three times per week. Necropsies were performed on Day 22; eyes, eye lids, conjunctivae, and lacrimal glands were collected from both eyes of each animal. Tissues from the right eyes (oculus dexter, OD) were fixed and then evaluated microscopically. Tissues from the left eyes (oculus sinister; OS) were flash-frozen in liquid nitrogen and stored frozen at −80° C. for possible subsequent analyses. Tear production was measured three times a week in both eyes using PRTT test strips (Zone-Quick; Menicon, Nagoya, Japan). Prior to the first treatment of the day, a thread was applied to the lateral canthus of the conjunctival fornix of each eye for 30 seconds under slit-lamp biomicroscopy. Tear migration up the tread (i.e., the length of the wetted cotton thread) was measured using a millimeter scale.

[3] = system: mouse model of scopolamine-induced dry eye; test: Histopathology of the right eye (cornea) at necropsy Day 22 in scopolamine-induced dry eye mice
Method: The study consisted of a total of 5 groups of female C57BL/6 mice, comprising 4 groups of 12 mice each and an additional group of 4 mice. Bilateral short-term dry eye was induced by a combination of scopolamine hydrobromide (Sigma-Aldrich Corp., St. Louis, Mo.) injection (subcutaneous (SC), four times daily, 0.5 mg/dose, Days 0-21) and by exposing mice to the drying environment of constant air draft. Starting on Day 1, mice of Groups 1-4 were treated three times daily (TID) for 21 days with bilateral topical ocular (oculus uterque; OU) administration (5 μL/eye/dose) of vehicle (0.9% sterile saline; negative control article); or the peptide of SEQ ID NO: 11 (0.06%, 0.25% and 0.6%). […] During the in-life (treatment) period, clinical observations were recorded once daily; slit-lamp examination (SLE) with corneal fluorescein staining, tear break-up time test (TBUT), and phenol red thread test (PRTT) were performed three times per week. […] Tissues from the right eyes (oculus dexter, OD) were fixed and then evaluated microscopically. […] Stained slides were evaluated via light microscopy. […] These tissues were scored for injury based upon a 0-4 scale, with 0 being normal, 1 being minimal, 2 being mild, 3 being moderate, and 4 being severe. […] Conjunctivae were scored for erosion and inflammation as well as presence or absence of goblet cells.

## NH2-DQSRPVQPFLNLTTPRKPRPPRRRQRRKKRG-COOH (H-[dD][dQ][dS][dR][dP][dV][dQ][dP][dF][dL][dN][dL][dT][dT][dP][dR][dK][dP][dR][dP][dP][dR][dR][dR][dQ][dR][dR][dK][dK][dR]G-OH) [SEQ ID NO: 11]
[1]; Group 2: 0.06% (low dose)
  Mean Calculated TBUT AUC: 88.54
[1]; Group 3: 0.25% (mid dose)
  Mean Calculated TBUT AUC: 91.19
[1]; Group 4: 0.6% (high dose)
  Mean Calculated TBUT AUC: 89.98
[1]; low, medium and high dose (Groups 2, 3 and 4)
  TBUT means compared with vehicle group: above the vehicle group
[1]; low, mid and high dose levels (Groups 2-4)
  Dose dependence of TBUT: generally dose-dependent increases in TBUT
[2]; 0.06%, 0.25% and 0.6% (Groups 2, 3 and 4)
  Dose dependence of PRTT: generally dose-dependent increases in PRTT
[2]; Group 2: 0.06% (low dose)
  Mean PRTT AUC: 39.96
[2]; Group 3: 0.25% (mid dose)
  Mean PRTT AUC: 42.79
[2]; Group 4: 0.6% (high dose)
  Mean PRTT AUC: 43.17
[3]; Group 2, low dose (0.06%)
  Corneal changes (histopathology) in comparison to the other treatment groups: slightly more severe
[3]; high dose (0.6%)
  Reducing/ameliorating the corneal changes (histopathology): most effective
